Read-outs that look alike come from different tables or passages of the source.

Results on 1 molecule are retold here after patent US5283353A, “Preparation of 1-amino-1-deoxyoligosaccharides and derivatives thereof” (Genzyme Corporation, priority 1990, dated 1994).

Experiment [1] is described as follows: Hydrolysis of 1-amino-1-deoxy-N-acetylglucosamine to 2-acetamido-2-deoxy-D-glucose in 50 mM phosphate p2H 7.0 buffer, followed by 1H NMR. The format is physicochemical. To be noted: for Pseudo-first order rate constant for hydrolysis: calculated. The method, then: To a solution of 1 mg of turkey ovomucoid glycopeptide (a heterogeneous mixture of three structurally related complex type oligosaccharides purified as described by E. M. Taga et al., Biochemistry, 23, 815-822 (1984)) in 50 mM phosphate, p^2 H 7.0 buffer in 99.96% ^2 H2 O equilibrated at the desired temperature was added the almond amidohydrolase enzyme to give a total volume of 0.5 ml. The reaction was followed by ^1 H NMR. The hydrolysis of 1-amino-1-deoxy-N-acetylglucosamine in 50 mM phosphate, p^2 H 7.0, buffer in 99.96% ^2 H2 O to 2-acetamido-2-deoxy-D-glucose was followed by ^1 H NMR as a reference compound. The proton peaks of interest were integrated and the pseudo first-order rate constant was calculated from the slope of a plot of the natural logarithm of the peak area as a function of time.
The rate of hydrolysis for the model compound was readily measured using ^1 H NMR. Upon hydrolysis, the ^1 H NMR signal for the anomeric proton of the model compound shifts downfield from 4.189 ppm (J1,2 =9.35 Hz) to 5.195 ppm (J1,2 =3.38 Hz) and 4.709 ppm (J1,2 =3.38 Hz), the former the alpha-anomer and the latter the beta-anomer of the product, N-acetylglucosamine, while the chemical shift of the N-acetyl group is unchanged. The pseudo-first order rate constants for the enzyme-catalyzed reaction and for the hydrolysis of the model compound are given in Table I; based on least squares standard error analysis, the precision in the pseudo-first order rate constant is ±5%. These limited data give energies of activation for the enzyme-catalyzed reaction of 9.5 kcal […] and for the model compound of 17.7 kcal mol^1.

The conditions of experiment [2]: cited from earlier work.

Regarding `CC(=O)N[C@@H]1[C@@H](O)[C@H](O)[C@@H](CO)O[C@H]1N` [1-Amino-N-acetylglucosamine, 1-amino-1-deoxy-N-acetylglucosamine], the “Pseudo-first order rate constant for hydrolysis” value in experiment [1] (p2H 7.0, 24 °C) was 1.08 10^3 × k (min^-1); in experiment [1] (p2H 7.0, 39 °C), 4.56 10^3 × k (min^-1); in experiment [2] (p2H 7.0, 22 °C), 0.88 10^3 × k (min^-1); in experiment [2] (p2H 7.0, 37 °C) it was 3.81 10^3 × k (min^-1). Also, in experiment [1] (p2H 7.0, from rate constants of Table I), the “Energy of activation for hydrolysis of the model compound” value came out at 17.7 kcal mol^1.
